In US11414426B2, “Treatment of skin disorders” (PIQUR THERAPEUTICS AG, priority 2017, dated 2022):
Marks after values point to notes of the source that are not given here.

Experiments:
[1] = Stress stability in propyleneglycol at 60° C. (HPLC); assay type: physicochemical; conditions: 1% in propyleneglycol, 72 h
Method: The fraction of residual test item was determined by HPLC. […] During the observation period of 72 hrs.
Equal concentrations (1%) of the test items in propyleneglycol were heated to 60° C. and the fraction of residual test item was determined by HPLC.

[2] = Ex vivo pig skin penetration, formulations in 80% SBECD; assay type: in vitro ADME
Source text: The control formulation Aldara (5% imiquimod) was applied to detect variations in skin permeability (local variability in the same animal and inter-subject variability). The stratum corneum was removed by tape stripping to avoid contamination during the biopsy extraction. […] One biopsy was taken from each control site. Additionally, 5 blank samples were taken.

[3] = Ex vivo pig skin PK profile, propylene glycol formulations; assay type: in vitro ADME
Source text: Excised pig skin was placed in a climate chamber to control temperature and humidity. […] Before biopsies were taken the stratum corneum was removed by tape stripping and biopsies consisted of the remaining epidermis and entire dermis.

[4] = In vivo pig skin penetration; conditions: living pig, single topical application, propylene glycol preparations
pPKB S473 in A2058 cells = experiment: In-cell Western blot, pPKB S473; assay type: cell-based; conditions: Homo sapiens, A2058, 1 h, 1 hour treatment, normalized to α-tubulin
Method: (§1) Cells are fixed with 4% paraformaldehyde for 30 minutes at room temperature, washed 2 times with 1% BSA in PBS, permeabilized with 0.1% Triton X-100 in PBS/1% BSA for 30 minutes at room temperature and blocked with 5% goat serum in PBS/1% BSA/0.1% Triton X-100 for 30 minutes at room temperature. […] Cells are washed 3 times 5 minutes with PBS/1% BSA/0.1% triton and plate scanned with the Odyssey Infrared Scanning system using both 700 and 800 nm channels. […] To correct for background staining in the data analysis wells are treated only with secondary antibodies.
(§2) For data analysis the mean background signal from channel 700 nm and 800 nm are subtracted from each signal in channel 700 nm and 800 nm, respectively.
(§3) IC50 values of each compound are determined by plotting the normalized pPBK S473 and pS6 S235/S236 signals, respectively, versus the compound concentrations (in logarithmic scale) and then by fitting a sigmoidal dose-response curve with variable slope to the data using GraphPad™ Prism.

[5] = tested on: pS6 S235/S236 in A2058 cells; experiment: In-cell Western blot, pS6 S235/S236; assay type: cell-based; conditions: 1 hour treatment, normalized to α-tubulin
Method: as §1, §2, §3

[6] = biological target: T1, N-terminally GST-tagged mTOR (truncated version: amino acids 1360-2549) (Homo sapiens, UniProt P42345); experiment: In vitro mTOR binding assay (LanthaScreen TR-FRET); conditions: 10 nM Tracer 314, 30 min RT
T1 construct: truncated version: amino acids 1360-2549; purchased Life Technologies PR8683B
T1 sequence (P42345 1360-2549): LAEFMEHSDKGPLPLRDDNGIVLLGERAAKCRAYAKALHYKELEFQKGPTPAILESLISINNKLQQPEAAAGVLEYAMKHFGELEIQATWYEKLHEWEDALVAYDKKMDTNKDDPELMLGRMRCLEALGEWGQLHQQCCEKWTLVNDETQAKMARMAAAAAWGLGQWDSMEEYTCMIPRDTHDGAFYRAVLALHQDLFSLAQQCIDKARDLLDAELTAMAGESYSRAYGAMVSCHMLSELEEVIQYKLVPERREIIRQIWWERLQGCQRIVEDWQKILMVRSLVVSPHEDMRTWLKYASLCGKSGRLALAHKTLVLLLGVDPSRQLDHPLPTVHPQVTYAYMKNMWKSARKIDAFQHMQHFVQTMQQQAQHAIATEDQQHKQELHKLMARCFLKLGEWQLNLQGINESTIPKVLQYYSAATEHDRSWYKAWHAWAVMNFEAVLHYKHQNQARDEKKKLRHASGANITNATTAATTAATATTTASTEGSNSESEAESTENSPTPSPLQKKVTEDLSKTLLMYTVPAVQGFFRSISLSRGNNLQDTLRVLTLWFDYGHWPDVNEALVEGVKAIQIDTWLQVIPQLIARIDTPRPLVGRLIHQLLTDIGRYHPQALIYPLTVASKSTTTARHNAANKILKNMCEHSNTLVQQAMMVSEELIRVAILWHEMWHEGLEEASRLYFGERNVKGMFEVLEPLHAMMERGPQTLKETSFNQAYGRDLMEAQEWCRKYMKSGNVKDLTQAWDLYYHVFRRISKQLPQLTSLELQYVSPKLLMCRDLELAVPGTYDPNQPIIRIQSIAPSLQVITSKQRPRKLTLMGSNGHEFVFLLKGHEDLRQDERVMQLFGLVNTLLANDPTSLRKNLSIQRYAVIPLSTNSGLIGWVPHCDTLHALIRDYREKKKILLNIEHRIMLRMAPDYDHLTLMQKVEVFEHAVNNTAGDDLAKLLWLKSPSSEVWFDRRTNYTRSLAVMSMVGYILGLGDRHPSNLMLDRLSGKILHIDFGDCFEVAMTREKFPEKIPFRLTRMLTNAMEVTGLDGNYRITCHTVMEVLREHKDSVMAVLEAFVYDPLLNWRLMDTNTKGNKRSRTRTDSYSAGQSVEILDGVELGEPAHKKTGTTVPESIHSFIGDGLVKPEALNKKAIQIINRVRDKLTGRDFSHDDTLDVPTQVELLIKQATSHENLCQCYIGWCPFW
Method: In Vitro mTOR Binding Assay
A 10-point 4-fold serial dilution (highest concentration at 10 μmol/L and lowest concentration at 40 pmol/L) of each compound was tested for mTOR binding in duplicate in a 384-well plate. […] After 30 min incubation at RT, time-resolved FRET was measured with a Synergy 4 multi-mode microplate reader (Biotek Instruments) using the following settings: 100 microsecs delay before data collection, 200 microsecs time for data collection, 10 measurements per data point.
IC50 values of each compound were determined by plotting the emission ratio versus the compound concentrations (in logarithmic scale) and then by fitting a sigmoidal dose-response curve with variable slope to the data using GraphPad™ Prism.

In the case of `CO[C@H]1C[C@@H]2CC[C@@H](C)[C@@](O)(O2)C(=O)C(=O)N2CCCC[C@H]2C(=O)O[C@H]([C@H](C)C[C@@H]2CC[C@@H](O)[C@H](OC)C2)CC(=O)[C@H](C)/C=C(\C)[C@@H](O)[C@@H](OC)C(=O)[C@H](C)C[C@H](C)/C=C/C=C/C=C/1C` [Sirolimus], the “degraded (fraction of test item lost, HPLC)” value [1] is reported as 39%.
With `Nc1cc(C(F)F)c(-c2nc(N3C4CCC3COC4)nc(N3C4CCC3COC4)n2)cn1` [Compound 3, 5-(4-(3-oxa-8-azabicyclo[3.2.1]octan-8-yl)-6-(3-oxa-8-azabicyclo[3.2.1]octan-8-yl)-1,3,5-triazin-2-yl)-4-(difluoromethyl)pyridin-2-amine] the “intrinsic penetration properties in comparison with Aldara (5% imiquimod)” value ([2]; ex vivo pig skin) was “slightly lower”, the “penetration into pig skin (lower epidermis and dermis)” value ([2]; ex vivo, 1% experimental formulations, 80% SBECD) was “penetrated into pig skin (lower epidermis and dermis) to a significant extent” and the “skin concentration / skin PK profile” value ([3]; 1% in 100% PG) was “comparable to 1*”. The “drug concentrations in the lower epidermis and dermis” value ([3]; 1% preparations containing propylene glycol, vs Aldara) was “high drug concentrations in the lower epidermis and dermis” and the “levels in epidermis and dermis after tape stripping” value [4] was “significant levels”.
`Nc1cc(C(F)(F)F)c(-c2cc(N3CCOCC3)nc(N3CCOCC3)n2)cn1` [BKM 120] gave an IC50 (pPKB S473 in A2058 cells) of 390 nM and an IC50 [5] of 640 nM.
`C[C@H]1COCCN1c1nc(-c2cnc(N)cc2C(F)F)nc(N2CCOC[C@@H]2C)n1` [Compound 6] showed an IC50 [6] of 23 nM.
